ChEMBL document CHEMBL1201862, “PubChem BioAssay data set” (2004)
Calls of active or inactive are those of the source.

Key:
[1] = target: DNA topoisomerase (Yersinia pestis, UniProt A0A2S9PM60); assay: Y. pestis Topo-I inhibitors, cleavage product readout, dose response, biochemical, cherry-pick (AID 588525)
[2] = target: Phospholipase D1 (Homo sapiens, UniProt Q13393); assay: PLD1 inhibitor potency in cells, dose response (AID 602151); type: functional;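 also: cellular PLD1 assay in Calu-1 cells stimulated with PMA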
[3] = target: Phospholipase D2 (Homo sapiens, UniProt O14939); assay: PLD2 inhibitor potency in cells, dose response (AID 602147); type: functional;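 also: cellular assay in HEK293 cells overexpressing GFP-tagged PLD2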
[4] = target: T1, Caspase-3 (Homo sapiens, UniProt P42574); assay: caspase-3 inhibitors as off-family protease, SAR follow-up, selectivity assay for SENP protease inhibitor project, biochemical, luminescence, set 2 (AID 588599); type: functional
T1 sequence (P42574 whole entry): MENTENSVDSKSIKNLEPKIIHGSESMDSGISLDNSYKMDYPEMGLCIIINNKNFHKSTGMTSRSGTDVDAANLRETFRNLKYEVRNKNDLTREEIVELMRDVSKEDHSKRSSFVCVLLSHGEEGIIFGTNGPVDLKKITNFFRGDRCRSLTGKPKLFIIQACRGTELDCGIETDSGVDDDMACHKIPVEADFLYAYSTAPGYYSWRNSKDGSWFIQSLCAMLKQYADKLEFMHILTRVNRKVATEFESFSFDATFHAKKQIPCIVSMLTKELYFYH

[5] = target: T2, Sentrin-specific protease 8 (Homo sapiens, UniProt Q96LD8); assay: SENP8 protease inhibitors, SAR follow-up, biochemical, luminescence, set 2 (AID 588601); type: functional
T2 sequence (Q96LD8 whole entry): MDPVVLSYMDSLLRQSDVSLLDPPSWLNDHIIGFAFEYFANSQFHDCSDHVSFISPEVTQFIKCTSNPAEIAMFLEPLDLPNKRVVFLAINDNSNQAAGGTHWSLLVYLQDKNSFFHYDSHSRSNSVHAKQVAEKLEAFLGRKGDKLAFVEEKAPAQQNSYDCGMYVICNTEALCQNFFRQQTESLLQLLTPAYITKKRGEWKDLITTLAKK

[6] = target: T3, Sentrin-specific protease 7 (Homo sapiens, UniProt Q9BQF6); assay: SENP7 protease inhibitors, SAR follow-up, biochemical, luminescence, set 2 (AID 588600); type: functional
T3 sequence (Q9BQF6 whole entry): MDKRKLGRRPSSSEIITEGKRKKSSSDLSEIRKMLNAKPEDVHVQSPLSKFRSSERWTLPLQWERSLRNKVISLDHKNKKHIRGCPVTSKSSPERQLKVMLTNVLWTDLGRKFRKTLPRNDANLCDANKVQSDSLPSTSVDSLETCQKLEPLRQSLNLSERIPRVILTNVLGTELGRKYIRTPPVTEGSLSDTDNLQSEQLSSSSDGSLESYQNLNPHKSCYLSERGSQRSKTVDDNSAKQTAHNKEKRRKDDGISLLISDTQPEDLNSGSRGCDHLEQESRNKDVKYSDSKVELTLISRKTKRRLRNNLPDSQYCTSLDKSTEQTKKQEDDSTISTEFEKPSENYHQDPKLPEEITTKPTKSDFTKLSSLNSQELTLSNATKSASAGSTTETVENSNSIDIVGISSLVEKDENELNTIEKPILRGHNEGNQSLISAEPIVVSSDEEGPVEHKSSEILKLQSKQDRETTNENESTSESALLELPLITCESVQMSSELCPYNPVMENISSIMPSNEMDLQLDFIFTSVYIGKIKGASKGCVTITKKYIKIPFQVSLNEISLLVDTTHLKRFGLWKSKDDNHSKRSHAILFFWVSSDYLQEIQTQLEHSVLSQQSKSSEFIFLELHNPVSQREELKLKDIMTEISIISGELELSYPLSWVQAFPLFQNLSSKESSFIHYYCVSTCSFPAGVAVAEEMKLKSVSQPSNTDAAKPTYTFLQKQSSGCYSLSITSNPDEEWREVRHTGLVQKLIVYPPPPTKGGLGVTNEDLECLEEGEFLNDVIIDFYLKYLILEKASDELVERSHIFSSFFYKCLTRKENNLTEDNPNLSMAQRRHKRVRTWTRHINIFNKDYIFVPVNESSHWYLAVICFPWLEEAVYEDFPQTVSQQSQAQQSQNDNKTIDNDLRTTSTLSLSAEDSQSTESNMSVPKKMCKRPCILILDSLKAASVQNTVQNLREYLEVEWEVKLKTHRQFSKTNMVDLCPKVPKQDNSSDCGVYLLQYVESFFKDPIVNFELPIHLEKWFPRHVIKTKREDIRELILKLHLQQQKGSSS

[7] = target: T4, Sentrin-specific protease 6 (Homo sapiens, UniProt Q9GZR1); assay: SENP6 protease inhibitors, SAR follow-up, biochemical, luminescence, set 2 (AID 588598); type: functional
T4 sequence (Q9GZR1 whole entry): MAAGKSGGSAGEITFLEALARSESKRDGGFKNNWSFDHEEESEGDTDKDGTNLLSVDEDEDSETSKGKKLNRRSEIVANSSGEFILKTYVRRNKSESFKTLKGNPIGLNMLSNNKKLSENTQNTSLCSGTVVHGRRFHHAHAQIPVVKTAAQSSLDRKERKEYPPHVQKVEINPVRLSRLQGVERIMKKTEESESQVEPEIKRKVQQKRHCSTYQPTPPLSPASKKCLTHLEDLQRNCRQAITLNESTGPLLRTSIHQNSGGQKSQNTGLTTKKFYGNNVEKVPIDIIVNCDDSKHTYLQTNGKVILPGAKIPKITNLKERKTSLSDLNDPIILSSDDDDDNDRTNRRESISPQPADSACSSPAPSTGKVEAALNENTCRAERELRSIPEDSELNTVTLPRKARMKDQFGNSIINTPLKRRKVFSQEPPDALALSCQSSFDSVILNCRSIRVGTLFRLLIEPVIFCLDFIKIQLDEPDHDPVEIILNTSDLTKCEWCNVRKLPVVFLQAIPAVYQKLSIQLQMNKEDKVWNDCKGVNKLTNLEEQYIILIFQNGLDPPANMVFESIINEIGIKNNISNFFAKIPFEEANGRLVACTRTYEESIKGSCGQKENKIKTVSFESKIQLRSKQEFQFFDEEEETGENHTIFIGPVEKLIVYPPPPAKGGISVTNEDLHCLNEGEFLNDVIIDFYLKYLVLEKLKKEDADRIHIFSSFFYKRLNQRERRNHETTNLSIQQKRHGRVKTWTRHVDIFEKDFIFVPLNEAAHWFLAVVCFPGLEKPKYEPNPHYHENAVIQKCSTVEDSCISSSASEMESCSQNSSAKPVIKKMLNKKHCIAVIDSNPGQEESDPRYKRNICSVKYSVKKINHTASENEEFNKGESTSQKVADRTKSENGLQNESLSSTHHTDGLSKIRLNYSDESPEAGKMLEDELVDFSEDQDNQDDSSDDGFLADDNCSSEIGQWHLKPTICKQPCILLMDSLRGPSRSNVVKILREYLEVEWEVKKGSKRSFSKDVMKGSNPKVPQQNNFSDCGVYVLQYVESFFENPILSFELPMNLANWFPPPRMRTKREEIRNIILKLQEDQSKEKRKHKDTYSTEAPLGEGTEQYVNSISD

[8] = target: Nonstructural protein 1 (Influenza A virus, UniProt Q194T2); type: functional, Influenza A virus (A/California/07/2009(H1N1))
[9] = tested on: HEK293; assay: inhibitors of LMP1-driven NF-kB reporter, dose response, cell-based, HEK293, luciferase, cherry-pick (AID 588343); type: functional; conditions: Homo sapiens
[10] = target: Latent membrane protein 1 (Human herpesvirus 4 (strain B95-8), UniProt P03230); assay: TES1-eGFP NF-kB reporter inhibition versus Tet-On dsRED, dose response, selectivity assay for LMP1 NF-kB inhibitor project, imaging, HEK293T, dual-color eGFP/dsRED, cherry-picks (AID 588398); type: functional, cell-based
Sequence of Latent membrane protein 1 (P03230 whole entry): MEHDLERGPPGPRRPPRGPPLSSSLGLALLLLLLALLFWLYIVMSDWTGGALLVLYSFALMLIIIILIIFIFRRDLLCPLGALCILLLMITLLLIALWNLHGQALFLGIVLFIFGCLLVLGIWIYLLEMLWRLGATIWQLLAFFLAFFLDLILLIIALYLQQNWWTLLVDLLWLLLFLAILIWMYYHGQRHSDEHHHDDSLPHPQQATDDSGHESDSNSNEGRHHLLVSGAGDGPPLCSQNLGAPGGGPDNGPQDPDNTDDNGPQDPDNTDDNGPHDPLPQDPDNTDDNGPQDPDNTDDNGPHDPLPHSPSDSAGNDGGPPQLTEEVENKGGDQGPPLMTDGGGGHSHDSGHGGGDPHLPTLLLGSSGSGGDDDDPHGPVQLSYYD

Sequence of Phospholipase D1 (Q13393 whole entry): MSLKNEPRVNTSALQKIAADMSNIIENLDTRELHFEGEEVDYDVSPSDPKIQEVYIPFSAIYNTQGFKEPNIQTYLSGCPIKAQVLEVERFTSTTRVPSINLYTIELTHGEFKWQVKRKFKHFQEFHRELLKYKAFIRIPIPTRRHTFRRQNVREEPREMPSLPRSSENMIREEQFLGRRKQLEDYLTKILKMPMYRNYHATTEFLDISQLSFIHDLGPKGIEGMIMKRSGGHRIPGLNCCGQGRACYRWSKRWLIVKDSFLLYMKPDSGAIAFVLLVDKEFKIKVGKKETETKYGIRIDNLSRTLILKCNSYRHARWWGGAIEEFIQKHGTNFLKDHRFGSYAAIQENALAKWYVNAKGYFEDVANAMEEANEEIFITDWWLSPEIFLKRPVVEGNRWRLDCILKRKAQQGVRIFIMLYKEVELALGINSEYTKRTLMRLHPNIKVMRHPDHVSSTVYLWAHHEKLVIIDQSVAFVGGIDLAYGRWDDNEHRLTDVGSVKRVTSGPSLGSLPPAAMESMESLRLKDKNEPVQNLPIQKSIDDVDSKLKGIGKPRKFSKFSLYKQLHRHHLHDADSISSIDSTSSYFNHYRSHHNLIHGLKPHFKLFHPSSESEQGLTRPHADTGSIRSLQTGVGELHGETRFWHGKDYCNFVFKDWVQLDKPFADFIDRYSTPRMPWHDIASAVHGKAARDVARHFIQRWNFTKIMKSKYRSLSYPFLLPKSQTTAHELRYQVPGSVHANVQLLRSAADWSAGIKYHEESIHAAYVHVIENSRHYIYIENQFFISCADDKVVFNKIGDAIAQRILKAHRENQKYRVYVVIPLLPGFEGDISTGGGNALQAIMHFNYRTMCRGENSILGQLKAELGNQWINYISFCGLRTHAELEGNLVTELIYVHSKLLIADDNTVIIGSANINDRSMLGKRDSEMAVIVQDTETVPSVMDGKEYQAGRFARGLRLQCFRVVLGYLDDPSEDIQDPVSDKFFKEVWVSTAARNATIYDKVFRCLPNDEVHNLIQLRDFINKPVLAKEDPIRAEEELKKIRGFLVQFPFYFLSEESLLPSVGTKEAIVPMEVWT
Sequence of Nonstructural protein 1 (Q194T2 whole entry): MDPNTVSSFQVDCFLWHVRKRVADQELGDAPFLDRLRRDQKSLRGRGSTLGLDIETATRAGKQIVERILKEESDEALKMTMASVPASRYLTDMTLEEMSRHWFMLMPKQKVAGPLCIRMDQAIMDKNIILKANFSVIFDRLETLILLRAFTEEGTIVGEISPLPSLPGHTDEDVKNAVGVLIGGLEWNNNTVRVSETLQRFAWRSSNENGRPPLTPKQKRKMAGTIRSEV
Sequence of Phospholipase D2 (O14939 whole entry): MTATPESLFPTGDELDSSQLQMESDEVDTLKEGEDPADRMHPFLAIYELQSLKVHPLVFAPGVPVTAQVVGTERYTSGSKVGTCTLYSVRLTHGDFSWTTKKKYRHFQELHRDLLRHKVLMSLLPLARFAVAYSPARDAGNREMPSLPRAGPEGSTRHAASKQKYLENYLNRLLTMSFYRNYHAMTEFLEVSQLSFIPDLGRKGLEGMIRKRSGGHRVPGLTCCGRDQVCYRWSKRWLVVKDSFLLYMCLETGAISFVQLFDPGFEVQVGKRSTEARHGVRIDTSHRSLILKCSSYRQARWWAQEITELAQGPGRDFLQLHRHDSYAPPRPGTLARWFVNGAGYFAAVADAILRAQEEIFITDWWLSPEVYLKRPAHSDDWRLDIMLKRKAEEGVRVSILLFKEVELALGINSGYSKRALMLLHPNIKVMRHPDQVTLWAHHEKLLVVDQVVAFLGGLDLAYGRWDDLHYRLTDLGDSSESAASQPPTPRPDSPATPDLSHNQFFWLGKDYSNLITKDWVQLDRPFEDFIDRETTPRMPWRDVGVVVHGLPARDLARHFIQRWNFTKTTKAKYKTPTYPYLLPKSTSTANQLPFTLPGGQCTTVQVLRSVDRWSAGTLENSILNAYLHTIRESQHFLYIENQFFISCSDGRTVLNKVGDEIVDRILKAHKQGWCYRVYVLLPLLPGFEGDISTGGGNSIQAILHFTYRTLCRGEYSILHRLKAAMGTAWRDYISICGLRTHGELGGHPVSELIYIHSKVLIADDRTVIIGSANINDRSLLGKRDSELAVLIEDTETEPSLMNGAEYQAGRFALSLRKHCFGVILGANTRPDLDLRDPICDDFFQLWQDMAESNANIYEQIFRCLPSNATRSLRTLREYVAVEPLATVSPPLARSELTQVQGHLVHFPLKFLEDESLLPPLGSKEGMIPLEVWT
Sequence of DNA topoisomerase (A0A2S9PM60 whole entry): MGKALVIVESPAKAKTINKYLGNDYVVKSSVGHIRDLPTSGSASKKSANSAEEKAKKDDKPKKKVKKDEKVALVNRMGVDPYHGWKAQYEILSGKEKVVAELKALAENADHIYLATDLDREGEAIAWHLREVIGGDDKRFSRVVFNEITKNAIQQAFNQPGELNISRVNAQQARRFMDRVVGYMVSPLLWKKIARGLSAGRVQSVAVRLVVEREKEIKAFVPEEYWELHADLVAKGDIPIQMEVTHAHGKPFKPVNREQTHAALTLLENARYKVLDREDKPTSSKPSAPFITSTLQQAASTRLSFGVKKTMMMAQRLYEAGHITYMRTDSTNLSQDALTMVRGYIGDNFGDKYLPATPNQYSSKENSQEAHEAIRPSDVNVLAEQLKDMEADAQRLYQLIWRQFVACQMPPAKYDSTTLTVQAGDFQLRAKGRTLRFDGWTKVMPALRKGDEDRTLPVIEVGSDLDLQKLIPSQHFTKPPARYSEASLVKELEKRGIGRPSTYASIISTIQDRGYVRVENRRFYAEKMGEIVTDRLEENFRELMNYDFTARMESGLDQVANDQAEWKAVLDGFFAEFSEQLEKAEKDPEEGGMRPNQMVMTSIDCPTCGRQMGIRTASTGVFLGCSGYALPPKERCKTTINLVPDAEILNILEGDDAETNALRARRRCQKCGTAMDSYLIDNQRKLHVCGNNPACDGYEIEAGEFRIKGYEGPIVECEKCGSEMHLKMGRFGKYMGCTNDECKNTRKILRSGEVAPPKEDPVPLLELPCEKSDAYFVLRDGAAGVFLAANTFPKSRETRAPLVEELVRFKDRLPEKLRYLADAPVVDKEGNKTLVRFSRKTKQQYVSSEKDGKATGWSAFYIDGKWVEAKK

## Cc1cc(C(=O)Cn2nc(C(=O)O)c3ccccc3c2=O)c(C)n1-c1ccc(OC(F)F)cc1
[1]
  AC50: 4.1 µM (active)

## O=C(NCCN1CCC2(CC1)CCN(c1ccccc1)C2=O)c1cnc2ccccc2c1
[2]
  IC50: 20 µM (inactive)
[3]
  IC50: 20 µM (active)

## Cc1ccccc1-c1noc(/C(C#N)=C\c2ccccc2F)n1
[4]
  IC50: > 99 µM (inactive)
[5]
  IC50: > 99 µM (inactive)
[6]
  IC50: > 99 µM (inactive)
[7]
  IC50: > 99 µM (inactive)

## CC(=NNC(=S)Nc1ccc(C)cc1)c1ccccn1
[8]
  IC50: 16.6 µM (active)
[9]
  AC50: 0.149 µM (active)
[10]
  AC50: 0.793 µM (active)
